# Experimental data reported in US4603044A, “Hepatocyte Directed Vesicle delivery system” (Technology Unlimited, Inc., priority 1984, dated 1986).
# B1: GH: free growth hormone given subcutaneously to control rats (protein, UniProt P01244 27-216, looked up)
# Somatotropin: FPAMPLSSLFANAVLRAQHLHQLAADTYKEFERAYIPEGQRYSIQNAQAAFCFSETIPAPTGKEEAQQRTDMELLRFSLLLIQSWLGPVQFLSRIFTNSLMFGTSDRVYEKLKDLEEGIQALMQELEDGSPRIGQILKQTYDKFDANMRSDDALLKNYGLLSCFKKDLHKAETYLRVMKCRRFAESSCAF
# How the values were obtained:
# [1] = tested on: denervated dogs (diabetic-like state); test: Blood glucose response to a standardized meal in selectively denervated (diabetic-like) dogs; assay type: in vivo, dog; settings: serotonin 150 ug, intravenously or subcutaneously
# Description: In a first study testing the HDV system, a chronic dog model was selected which mimics the early stages of adult onset diabetes mellitus, now referred to as diabetes mellitus Type II. In this model, the diabetes was induced by selective denervation.
# This study was divided into three phases, studying the blood glucose response of the animals while in the (1) normal state; (2) diabetic-like state; and (3) successful treatment of the diabetic-like state with subcutaneously administered HDV containing serotonin.
# The experimental plan required four normal, healthy mongrel dogs. […] The graph of FIG. 1 is a comparison chart for in vivo testing.
# The data for this normal phase are shown in the graph as the line indicated by reference number 10. The data are expressed as a percentage of the fasting blood glucose value taken prior to feeding. Since four dogs were used, the average or mean value for the data is plotted. The data are statistically analyzed, and the variation in the data is shown by the small vertical bars above and below the data points. These bars are the standard error of the mean (SEM).
# Following the acquisition of the data described above, the dogs were surgically denervated to induce the diabetic-like state and allowed a week to recover. At this time the study is again repeated, and the data are shown as the line indicated by reference number 12, along with the error bars (SEM). […]
# [2] = tested on: selectively denervated dog; test: Conversion of hepatic glucose output to uptake in selectively denervated dog, intravenous infusion (biliverdin target); assay type: in vivo
# Method: This dog, when infused with glucose, has portal vein glucose values (mg % measured with a Beckman Glucose Analyzer) that are less than hepatic vein glucose, indicating a hep hepatic glucose output. This is clearly seen in the data presented in the of FIG. 6. The dog is in a state of glucose output for time 15, 30 and 40 minutes. […]
# [3] = tested on: selectively denervated dog; test: Conversion of hepatic glucose output to uptake in selectively denervated dog, intraduodenal injection; assay type: in vivo; settings: infusion for thirty minutes
# Method: In this model, the response of the HDV Serotonin was the conversion of hepatic glucose output to uptake. This conversion was determined by measuring the glucose levels (Beckman Glucose Analyzer) in simultaneously obtained blood samples from the portal and hepatic veins. Sampling was by means of sampling catheters acutely placed under general anesthesia.
# The state of hepatic glucose output occur when the level of glucose (mg %) in the hepatic vein exceeds that of the portal vein. Hepatic glucose uptake is the reverse situation.
# Data for the experiment are found in the graph of FIG. 5. At "0" minutes, during the control period, the animal is in a state of hepatic glucose output. Because of the selective denervation, the animal stays in output (at 20 and 55 minutes), even though glucose is being infused at a rate of 0.5 g/kg body weight/hour via a mesenteric vein.
# The HDV Serotonin is injected into the duodenum (0.8 ml containing 3 ug serotonin/kg) at 60 minutes.
# [4] = tested on: insulin-deficient (diabetic) dog; test: Conversion of hepatic glucose output to uptake in insulin-deficient (diabetic) dog, intravenous infusion; assay type: in vivo; settings: insulin alone
# Description: The response of HDV Insulin to be measured was the conversion of hepatic glucose output to uptake by measuring the glucose (Beckman Glucose Analyzer) levels of simultaneously obtained portal and hepatic vein blood. Diabetes had been induced by the method of Black, (Am. J. Pathol. Vol 98, No. 2, pg 295-305, 1980) and sampling was done via portal and hepatic vein catheters acutely placed under general anesthesia. The dog had been fasted from food for twenty-four hours and taken off of exogenously-administered insulin for forty-eight hours.
# The state of hepatic glucose output occurs when the hepatic vein glucose level (in mg%) exceeds the portal vein glucose level. Hepatic glucose uptake is the reverse.
# The data for the experiment are found in the graph of FIG. 4. At "0" minutes the dog is in glucose output, and this output is maintained through the "23" and "35" minute samples, even though glucose is infused via a mesenteric vein at a rate of 0.5 g/kg body weight/hour. An intact (non-diabetic) animal would have immediately converted to glucose uptake. This dog's diabetic state is confirmed by its' not converting to glucose uptake at these times.
# Following the "35" minutes sampling, HDV Insulin was infused via the left external jugular vein at a rate of 0.03 mU/kg/minute. […] The minimum infusion rate for insulin alone is 6.25 mU/kg/minute. […]
# [5] = tested on: hypophysectomized rats; test: Growth stimulation in hypophysectomized rats, daily subcutaneous injection; assay type: in vivo, rat
# Method: The HDVGH was administered to rats daily by subcutaneous injection. The control rats required 10 ugGH per day (also given subcutaneously) to maintain normal growth of 1 g weight gain per day. The HDVGH treated rats attained normal growth rates with dosages of HDVGH of 0.15 to 1.5 ug per day. Thus, the HDVGH required only 1/7th to 1/50th of the regular dose of growth hormone. The HDVGH was superpotent and was efficacious when given by subcutaneous injection.
molecule,measurement,setting,value
"NCCc1c[nH]c2ccc(O)cc12 [serotonin, 5-hydroxytryptamine]",effect of free serotonin on post-meal blood glucose elevation,[1],not effective
same,rate of free serotonin infusion required,[2],30 µg/kg/min
same,intraportal infusion of free serotonin required for the same pharmacologic effect,[3],10-30 ug/kg body weight/minute
"insulin: free hormone insulin, comparator to HDV Insulin",minimum infusion rate for conversion to hepatic glucose uptake,[4],6.25 mU/kg/minute
B1,daily dose to attain/maintain normal growth (1 g weight gain per day),[5],10 ug per day
